According to BindingDB's records for doi:10.1016/s0960-894x(98)00253-4 (San Francisco State University, 1999):

Molecular target: T1, Gamma-glutamyl hydrolase (Homo sapiens, UniProt Q92820)
T1 sequence (Q92820 whole entry): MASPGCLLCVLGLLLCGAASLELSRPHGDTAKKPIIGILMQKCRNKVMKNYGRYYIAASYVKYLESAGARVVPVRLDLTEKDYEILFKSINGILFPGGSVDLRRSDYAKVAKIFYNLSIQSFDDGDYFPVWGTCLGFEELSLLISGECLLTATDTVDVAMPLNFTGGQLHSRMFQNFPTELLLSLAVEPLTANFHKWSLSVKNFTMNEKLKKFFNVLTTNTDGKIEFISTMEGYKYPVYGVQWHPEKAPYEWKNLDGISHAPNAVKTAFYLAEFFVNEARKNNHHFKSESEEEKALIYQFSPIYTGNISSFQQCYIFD
Experiment: ChEBML_68750
Conditions: read-out: kon (M-1-s-1)
Protocol: Compound was tested for inhibitory potency against gamma-Glutamyl Hydrolase.

SMILES: COP(=O)(N[C@@H](CCC(=O)O)C(=O)O)c1ccccc1 (some centres not stated)
- kon: 4400 M⁻¹ s⁻¹

SMILES: COP(=O)(N[C@@H](CCC(=O)O)C(=O)O)OC
- kon: 177000 M⁻¹ s⁻¹
